Data from patent US20190119282A1, “IMIDAZOPYRIDAZINES USEFUL AS INHIBITORS OF THE PAR-2 SIGNALING PATHWAY” (Vertex Pharmaceuticals Incorporated, priority 2013, published 2019).

Columns and labels:
[1] = tested on: UTP-stimulated Ca2+ response in HT-29 cells; experiment: Ca FLIPR TETRA assay, ANTAGONIST mode, stimulation with 0.6 μM UTP; type: cell-based, human; details: Homo sapiens; HT-29 cells, antagonist mode, stimulation with 0.6 μM UTP
Procedure, shortened: (§1)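 Inhibition of activator-evoked Ca2+ flux was recorded on FLIPR Tetra in HT-29 cells after 30 min compound exposure at r.t. A prior read checked whether compounds alone triggered Ca2+ release.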

[2] = tested on: Thrombin-stimulated Ca2+ response in HT-29 cells; experiment: Ca FLIPR TETRA assay, ANTAGONIST mode, stimulation with 1 U/mL Thrombin; type: cell-based, human; details: Homo sapiens; HT-29 cells, antagonist mode, stimulation with 1 U/mL Thrombin
Procedure, shortened: as §1

[3] = biological target: T1, PAR2 (HT-29 cells, trypsin activation) (Homo sapiens, UniProt P55085); experiment: Ca FLIPR TETRA assay, ANTAGONIST mode, stimulation with 3.1 U/mL trypsin; type: cell-based; details: HT-29 cells, antagonist mode, stimulation with 3.1 U/mL trypsin
T1 construct: host or cells: HT-29 cells
T1 sequence (P55085 26-397): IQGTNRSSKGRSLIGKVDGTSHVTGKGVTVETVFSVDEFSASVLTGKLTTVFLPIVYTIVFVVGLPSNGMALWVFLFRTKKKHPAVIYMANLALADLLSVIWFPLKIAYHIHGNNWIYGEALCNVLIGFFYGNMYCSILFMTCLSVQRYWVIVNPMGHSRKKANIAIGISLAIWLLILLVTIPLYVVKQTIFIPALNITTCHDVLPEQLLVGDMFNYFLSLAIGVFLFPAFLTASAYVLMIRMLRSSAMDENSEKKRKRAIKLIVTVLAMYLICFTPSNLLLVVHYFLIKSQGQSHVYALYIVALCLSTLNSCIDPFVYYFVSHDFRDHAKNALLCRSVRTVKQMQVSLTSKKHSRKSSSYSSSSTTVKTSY
Procedure, shortened: as §1

[4] = biological target: T2, PAR2 (HT-29 cells, SLIGKV activation) (Homo sapiens, UniProt P55085); experiment: Ca FLIPR TETRA assay, ANTAGONIST mode, stimulation with 8 μM SLIGKV; type: cell-based; details: HT-29 cells, antagonist mode, stimulation with 8 μM SLIGKV
T2 construct: host or cells: HT-29 cells
T2 sequence (P55085 26-397): T1 sequence (P55085 26-397)
Procedure, shortened: as §1

Structure (SMILES): CC(C)c1cc(-c2ccc(F)cc2)nn2cc(C(=O)N3CCN(C(=O)[C@H](O)CC(C)(C)C)C[C@@H]3C)nc12 [Compound I-197]
- IC50 [1]: > 1000 nM
- IC50 [2]: > 1000 nM
- IC50 [3]: 430 nM
- IC50 [4]: 150 nM

Structure (SMILES): CC(C)(O)C(=O)N1CCN(C(=O)c2cn3nc(-c4ccc(F)cc4)cc(C(C)(C)C)c3n2)C(C)(C)C1 [Compound I-198]
- IC50 [1]: > 1000 nM
- IC50 [2]: > 1000 nM
- IC50 [3]: 5.6 nM
- IC50 [4]: 4.4 nM

Structure (SMILES): CC(C)(C)c1cc(-c2ccc(F)cc2)nn2cc(C(=O)N3CCN(C(=O)C4CCCO4)CC3(C)C)nc12 (stereo not shown) [Compound I-200]
- IC50 [1]: > 1000 nM
- IC50 [2]: > 1000 nM
- IC50 [3]: 2.9 nM
- IC50 [4]: 2.4 nM

Structure (SMILES): CC(C)(C)c1cc(-c2ccc(F)cc2)nn2cc(C(=O)N3CCN(C(=O)c4ccno4)CC3(C)C)nc12 [Compound I-202]
- IC50 [1]: > 1000 nM
- IC50 [2]: > 1000 nM
- IC50 [3]: 0.9 nM
- IC50 [4]: 0.6 nM

Structure (SMILES): CC(C)(C)c1cc(-c2ccc(F)cc2)nn2cc(C(=O)N3CCN(C(=O)c4ccon4)CC3(C)C)nc12 [Compound I-203]
- IC50 [1]: > 1000 nM
- IC50 [2]: > 1000 nM
- IC50 [3]: 1 nM
- IC50 [4]: 0.7 nM

Structure (SMILES): CC1(C)CN(C(=O)C2CC(O)(C(F)(F)F)C2)CCN1C(=O)c1cn2nc(-c3ccc(F)cc3)cc(C3CCOCC3)c2n1 (stereo not shown) [Compound I-204]
- IC50 [1]: > 1000 nM
- IC50 [2]: > 1000 nM
- IC50 [3]: 93 nM
- IC50 [4]: 42.5 nM

Structure (SMILES): CC(C)(C)c1cc(-c2ccc(F)cc2)nn2cc(C(=O)N3CCNCC3(C)C)nc12 [Compound I-205]
- IC50 [1]: > 1000 nM
- IC50 [2]: > 1000 nM
- IC50 [3]: 580 nM
- IC50 [4]: 310 nM

Structure (SMILES): CC(C)(C)c1cc(-c2ccc(F)cc2)nn2cc(C(=O)N3CCN(C4CC4)C(=O)C3(C)C)nc12 [Compound I-206]
- IC50 [1]: > 1000 nM
- IC50 [2]: > 1000 nM
- IC50 [3]: 0.8 nM
- IC50 [4]: 0.8 nM

Structure (SMILES): CC(C)N1CCN(C(=O)c2cn3nc(-c4ccc(F)cc4)cc(C(C)(C)C)c3n2)C(C)(C)C1=O [Compound I-207]
- IC50 [1]: > 1000 nM
- IC50 [2]: > 1000 nM
- IC50 [3]: 8.3 nM
- IC50 [4]: 9.8 nM

Structure (SMILES): CC(C)(C)c1cc(-c2ccc(F)cc2)nn2cc(C(=O)N3CCN(C(F)F)C(=O)C3(C)C)nc12 [Compound I-208]
- IC50 [1]: > 1000 nM
- IC50 [2]: > 1000 nM
- IC50 [3]: 103 nM
- IC50 [4]: 85 nM

Structure (SMILES): C[C@@H]1C[C@H](c2cc(-c3ccc(F)cc3)nn3cc(C(=O)N4CCN(C(=O)OC(C)(C)C)CC4(C)C)nc23)C[C@H](C)O1 [Compound I-209]
- IC50 [1]: > 1000 nM
- IC50 [2]: > 1000 nM
- IC50 [3]: 16.6 nM
- IC50 [4]: 16.6 nM

Structure (SMILES): CC(C)(C)c1cc(-c2ccc(F)cc2)nn2cc(C(=O)N3CCN(C4COC4)C(=O)C3(C)C)nc12 [Compound I-210]
- IC50 [1]: > 1000 nM
- IC50 [2]: > 1000 nM
- IC50 [3]: 3.5 nM
- IC50 [4]: 4 nM

Structure (SMILES): CCN1CCN(C(=O)c2cn3nc(-c4ccc(F)cc4)cc(C(C)(C)C)c3n2)C(C)(C)C1=O [Compound I-211]
- IC50 [1]: > 1000 nM
- IC50 [2]: > 1000 nM
- IC50 [3]: 4.5 nM
- IC50 [4]: 5.4 nM

Structure (SMILES): C=C(C)c1cc(-c2ccc(F)cc2)nn2cc(C(=O)N3CCN(C)C(=O)C3(C)C)nc12 [Compound I-212]
- IC50 [1]: > 1000 nM
- IC50 [2]: > 1000 nM
- IC50 [3]: 54.7 nM
- IC50 [4]: 90.3 nM

Structure (SMILES): C[C@@H]1C[C@H](c2cc(-c3ccc(F)cc3)nn3cc(C(=O)N4CCN(C(=O)c5ccn[nH]5)CC4(C)C)nc23)C[C@H](C)O1 [Compound I-214]
- IC50 [1]: > 1000 nM
- IC50 [2]: ≥ 1000 nM
- IC50 [3]: 26.8 nM
- IC50 [4]: 21.2 nM

Structure (SMILES): CC(C)c1cc(-c2ccc(C(F)(F)F)cc2)nn2cc(C(=O)N3CCN(C(=O)C(C)(C)O)CC3(C)C)nc12 [Compound I-215]
- IC50 [1]: > 1000 nM
- IC50 [2]: > 1000 nM
- IC50 [3]: 18.2 nM
- IC50 [4]: 12 nM

Structure (SMILES): Cc1cccc(-c2cc(C(C)C)c3nc(C(=O)N4CCN(C(=O)C(C)(C)O)CC4(C)C)cn3n2)c1 [Compound I-216]
- IC50 [1]: > 1000 nM
- IC50 [2]: > 1000 nM
- IC50 [3]: 190 nM
- IC50 [4]: 108 nM

Structure (SMILES): CC(C)c1cc(-c2cccc(C(F)(F)F)c2)nn2cc(C(=O)N3CCN(C(=O)C(C)(C)O)CC3(C)C)nc12 [Compound I-217]
- IC50 [1]: > 1000 nM
- IC50 [2]: > 1000 nM
- IC50 [3]: 545 nM
- IC50 [4]: 205 nM

Structure (SMILES): Cc1ccc(-c2cc(C(C)C)c3nc(C(=O)N4CCN(C(=O)C(C)(C)O)CC4(C)C)cn3n2)cc1 [Compound I-218]
- IC50 [1]: > 1000 nM
- IC50 [2]: > 1000 nM
- IC50 [3]: 39.8 nM
- IC50 [4]: 24.8 nM
